Measured values from patent US12465617B2, “Methods and systems for inhibiting foreign-body responses in diabetic patients” (Medtronic MiniMed, Inc., priority 2013, dated 2025).
Entries after “also recorded” stand apart in the source; their conditions may differ.

Legend:
[1] = system: normal and diabetic Yucatan pigs; experiment: PK/PD study: blood glucose response to Humalog; type: in vivo, Yucatan pig
Excerpt: Factors influencing insulin pK/pD properties include inflammation, infection, immune response, wound healing cascade, age of patients, type of insulin used, site of insertion, layer of scar tissue where the catheter tip resides, and several others. 6 Yucatan pigs were used in this study: 2 normal and 4 diabetic pigs, as shown in […]

diabetic pig = experiment: Histopathology of infusion sites (inflammation at catheter tip and body); type: in vivo; details: listed as Humalog™
Excerpt: FIG. 2A is a series of histologic evaluations at the catheter tip showing the inflammatory response (score), and size of the area with tissue reaction. “*” indicates the catheter location and “F” indicates normal fat. […] FIG. 2B is a series of graphs illustrating the inflammation at the catheter tip for diabetic and non-diabetic pigs. Localized inflammation loosely correlated with site-loss.
FIG. 2C is a series of graphs illustrating the predominate inflammation cells at the catheter tip and catheter body (qualitative). To isolate the main inflammation contributors, a catheter, a catheter infused with insulin (Humalog™), and a catheter infused with placebo were placed on a diabetic pig at the same time.
FIG. 2D is a series of graphs illustrating the predominate inflammation cells at the catheter tip and catheter body of an insulin injection port (i-Port™). To isolate the main inflammation contributors, a catheter, a catheter infused with insulin, and a catheter infused with placebo were placed on a diabetic pig. Compared to continuous infusion, the giant cells are missing in the i-Port™ study. […] As observed by the pathologist, the pigs may have developed a hypersensitivity to the Humalog™ and such a reaction would contribute to the inflammation seen (the degree that hypersensitivity is influencing the inflammation is unclear but it could be one of the main drivers).

diabetic porcine model = experiment: Site-loss evaluation of insulin infusion sets in diabetic porcine model (blood glucose >350 mg/dl not corrected by insulin); type: in vivo, pig; details: for site-loss performance versus the control: agent formulated with insulin (Humalog)
Procedure: The objectives of this study include duplicating the site-loss phenomena observed in previous studies using a diabetic porcine model. Additionally, various infusion set configurations are evaluated for reducing site-loss and extending infusion set wear. Further, site-loss is mitigated using a response-inhibiting agent and/or infusion pump to increase reliability of wear for 3 days and extend infusion set wear beyond 3 days.
The objectives of this study include: duplicating the site-loss phenomena observed in previous studies using the diabetic porcine model; using the established diabetic porcine model to evaluate the effects of various infusion set designs on infusion site-loss; and testing if site-loss can be mitigated by direct pump infusing of immunosuppressant/anti-inflammatory drugs, and/or by modifying infusion set by drug coating.
This study is designed so that each set (inserted under anesthesia) is to be worn for 1 week unless there was set failure/dislodge. Glucose is monitored by a blood glucose meter and Enlite™ sensor. The criteria for determining site loss is that blood glucose is greater than 350 mg/dl and fails to decrease following an insulin dose correction. During biopsy pumps are removed but the cannula is maintained in-situ. Site skin is examined for edema/erythema (swell/redness) (see FIG. 8).

[2] = Assay of rapamycin/Humalog solution after use; type: physicochemical; details: 20 μg/mL solution assayed after use

Q: For Insulin lispro, which “blood glucose level lowering” value [1] is on record?
A: effectively lower blood glucose level

Q: What about the “order of evaluated inflammation scores” value (diabetic pig; catheter, catheter infused with insulin, catheter infused with placebo on a diabetic pig) of the same compound?
A: insulin≥placebo≥catheter; also recorded: insulin≥placebo≥cannula

Q: What about the “localized inflammation / tissue fibrosis” value (diabetic pig; compared to catheter and placebo) of the same compound?
A: associated with increased localized inflammation; also recorded: main contributor to localized tissue fibrosis

Q: With `CO[C@H]1C[C@@H]2CC[C@@H](C)[C@@](O)(O2)C(=O)C(=O)N2CCCC[C@H]2C(=O)O[C@H]([C@H](C)C[C@@H]2CC[C@@H](O)[C@H](OC)C2)CC(=O)[C@H](C)/C=C(\C)[C@@H](O)[C@@H](OC)C(=O)[C@H](C)C[C@H](C)/C=C/C=C/C=C/1C` [Rapamycin] as the compound, how does the “recovery of infusion site after” value (diabetic porcine model; dosed with Humalog) read?
A: around 6 days

Q: What about the “duration of wear before site-loss” value (diabetic porcine model; formulation of insulin (Humalog) with agent, Sof-Set) of the same compound?
A: 5 days

Q: And the “stability of rapamycin in U100 Humalog solution” value [2]?
A: *Rapamycin was later found to be degraded by assaying solution after use.

Q: With heparin sodium as the compound, how does the “no site-loss occurred in” value (diabetic porcine model; U100 Humalog with heparin sodium 3.55 mg/mL (685 U/mL), continuous infusion, pigs IM3 and IM4, control IM1 site-loss in 2 days) read?
A: > 6 days

Q: What about the “site-loss performance versus the control” value (diabetic porcine model) of the same compound?
A: significantly better than the control

Q: Which “site-loss performance versus the control” value (diabetic porcine model) does the source give for Dextran Sulfate Sodium Salt here?
A: significantly better than the control

Q: Which “site-loss performance versus the control” value (diabetic porcine model) does the source give for `C[C@@H]1C[C@H]2[C@@H]3CCC4=CC(=O)C=C[C@]4(C)[C@@]3(F)[C@@H](O)C[C@]2(C)[C@@]1(O)C(=O)COP(=O)(O)O` [DXP, Dexamethasone Phosphate] here?
A: significantly worse than the control

Q: With `C[C@H]1C[C@H]2[C@@H]3CCC4=CC(=O)C=C[C@]4(C)[C@@]3(F)[C@@H](O)C[C@]2(C)[C@@]1(O)C(=O)COP(=O)([O-])[O-].[Na+].[Na+]` [BSP, betamethasone sodium phosphate] as the compound, how does the “site-loss performance versus the control” value (diabetic porcine model) read?
A: significantly worse than the control
